Columns and labels:
[1] = tested on: chick chorioallantoic membrane (CAM) blood vessel branching; assay: Chorioallantoic membrane (CAM) model of angiogenesis; type: in vivo
Protocol: In vivo neovascularization was examined by methods described previously. 9-12 Ten-day-old chick embryos were purchased from SPAFAS (Preston, Conn.) and incubated at 37° C. with 55% relative humidity. A hypodermic needle was used to make a small hole in the shell concealing the air sac, and a second hole was made on the broad side of the egg, directly over an avascular portion of the embryonic membrane that was identified by candling. A false air sac was created beneath the second hole by the application of negative pressure at the first hole, causing the CAM to separate from the shell. A window approximately 1.0 cm^2 was cut in the shell over the dropped CAM with a small-crafts grinding wheel (Dremel, division of Emerson Electric Co.), allowing direct access to the underlying CAM. […] Sterile disks of No. 1 filter paper (Whatman International) were pretreated with 3 mg/mL cortisone acetate and 1 mmol/L PTU and air dried under sterile conditions. Thyroid hormone, hormone analogs, FGF2 or control solvents, and inhibitors were then applied to the disks and the disks allowed to dry. The disks were then suspended in PBS and placed on growing CAMs. […] At 24 hours, the MAPK cascade inhibitor PD 98059 was also added to CAMs topically by means of the filter disks.
After incubation at 37° C. with 55% relative humidity for 3 days, the CAM tissue directly beneath each filter disk was resected from control and treated CAM samples. Tissues were washed 3× with PBS, placed in 35-mm Petri dishes (Nalge Nunc), and examined under an SV6 stereomicroscope (Zeiss) at X50 magnification. Digital images of CAM sections exposed to filters were collected using a 3-charge-coupled device color video camera system (Toshiba) and analyzed with Image-Pro software (Media Cybernetics). The number of vessel branch points contained in a circular region equal to the area of each filter disk were counted. One image was counted in each CAM preparation, and findings from 8 to 10 CAM preparations were analyzed for each treatment condition (thyroid hormone or analogs, FGF2, FGF2 antibody, PD 98059). In addition, each experiment was performed 3 times. The resulting angiogenesis index is the mean±SEM of new branch points.

[2] = tested on: Human medullary carcinoma of the thyroid (MTC) cells; assay: Tumor growth and angiogenesis in the CAM cancer implant model; type: in vivo, chick; conditions: 1 μg/CAM, 8 days, n=8
Description: Penicillin streptomycin (1%) was present in both culture media. […] Water and food were provided ad libitum.

[3] = tested on: doxorubicin-resistant MCF7/R tumors; assay: Doxorubicin-resistant tumors in nude mice; type: in vivo
Protocol: Mice were injected with doxorubicin-resistant MCF7/R cells (10^6) and after 10 days, they were assigned into groups of seven mice each and challenged with doxorubicin (2 mg/kg) or Tetrac (30 mg/kg) either alone or in combination. Tumor volume was measured every 3 days for up to three weeks.

MCF7 and MCF7/R cells = assay: Intracellular accumulation of radiolabeled doxorubicin; type: cell-based; conditions: 24 hours, presence of Tetrac
Protocol: The cells were incubated for 24 hours with doxorubicin in the absence or the presence of Tetrac, after that they were washed and then solubilized. Radioactivity associated with the cell lysates was counted and compared between the two cell lines either treated or not with Tetrac. The data represent an average of 3 determinations±SE.

[4] = tested on: human medullary carcinoma of the thyroid (MTC) xenografts; conditions: mouse, in vivo
SKN-SH/R cells = assay: Senescence and apoptosis in drug resistant cells; type: cell-based; conditions: 24 h
Protocol: In FIG. 16A, SKN-SH/R cells were subjected to treatment doxorubicin (Dox) alone, Tetrac alone, or the combination of both for 24 h. Expression of p21/WAF1, cleaved caspase-3 (Cl-Casp-3) and beta action were measured by Western blot using specific antibodies.
FIG. 16B discloses the cells were seeded in 24 well plates and treated as mentioned above and expression of the senescence associated beta galactosidase (SA-β-Gal.) was assayed as described in the methods section.
FIG. 16C discloses the cells were seeded on cover slips and treated with the drugs as above for 24 h, after which they were fixed and stained with Hoechst and the percentage of positive cells graphed. The data represent average of 3 determinations±SE.

## O=C(O)Cc1cc(I)c(Oc2cc(I)c(O)c(I)c2)c(I)c1 [Tetrac, tetraiodothyroacetic acid]
[1]; FGF (1.25 μg/ml) + Tetrac or analog at 10 μg/plug
  Mean % Inhibition: 85%
[1]; Tetrac 0.1 μmol/L with T4
  effect on action of T4 on angiogenesis: inhibited the action of T4
[1]; Tetrac alone
  effect of Tetrac alone on angiogenesis: no effect on angiogenesis
[1]; Tetrac with T4-agarose 0.1 μmol/L
  effect on action of T4-agarose on angiogenesis: inhibited
[2]
  tumor growth: effective inhibition
  tumor-mediated angiogenesis: significant inhibition
[3]; Tetrac 30 mg/kg
  growth of drug resistant tumors: effective in suppressing the growth of drug resistant tumors
  toxic effect: without any noticeable toxic effect
[3]; Tetrac with doxorubicin 2 mg/kg
  doxorubicin-sensitivity in vivo: not restored
MCF7 and MCF7/R cells
  intracellular accumulation of radiolabeled doxorubicin: increased significantly
[4]
  mortality: no mortality
SKN-SH/R cells
  doxorubicin-induced proliferation arrest, SA-β-Gal and cell death: dramatically enhanced

Reference: patent US9839614B2, “Nanoparticle and polymer formulations for thyroid hormone analogs, antagonists, and formulations and uses thereof” (NANOPHARMACEUTICALS LLC, priority 2009, dated 2017)
